Results published in PubChem BioAssay AID2060904 (Molecular Pharmacology Branch, DTP, NCI, 2025).

Test system: 349418-098-R-PDC complex spheroid viability
Assay: Anticancer human tumor 349418-098-R-PDC patient-derived lung adenocarcinoma cell line growth inhibition [RAS]
Settings: for IC50: curve of first compound; for viability, T/C: stronger effect = lower value
Method in brief: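 Agents were tested in combination matrices in half-log decrements from a top concentration at or near clinical Cmax (10 microM if undetermined). Targets were multi-cell spheroids of tumour lines plus HUVEC and MSC stromal cells.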
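Further: spheroids exposed to compound for seven days before viability readout.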

Compound: CC(C)NCC(C(=O)N1CCN(c2ncnc3c2C(C)CC3O)CC1)c1ccc(Cl)cc1 (configuration not stated) + CCn1c(-c2cc(N3CCN(C)CC3)cnc2C(C)OC)c2c3cc(ccc31)-c1csc(n1)CC(NC(=O)C1CC1C)C(=O)N1CCCC(N1)C(=O)OCC(C)(C)C2
- IC50 (second compound 0.000949 µM): 0.843 µM
- IC50 (second compound 0.003 µM): 0.831 µM
- IC50 (second compound 0.00949 µM): 1.15 µM
- IC50 (second compound 0.03 µM): 0.864 µM
- IC50 (second compound 0.0949 µM): 1.19 µM
- IC50 (second compound 0.3 µM): 0.829 µM
- viability, T/C (second compound 0.000949 µM, first compound 0.0316 µM): 97%
- viability, T/C (second compound 0.000949 µM, first compound 0.1 µM): 86.3%
- viability, T/C (second compound 0.000949 µM, first compound 0.316 µM): 71.5%
- viability, T/C (second compound 0.000949 µM, first compound 1 µM): 47.3%
- viability, T/C (second compound 0.000949 µM, first compound 3.16 µM): 23.5%
- viability, T/C (second compound 0.000949 µM, first compound 10 µM): 14.2%
- viability, T/C (second compound 0.003 µM, first compound 0.0316 µM): 117%
- viability, T/C (second compound 0.003 µM, first compound 0.1 µM): 101%
- viability, T/C (second compound 0.003 µM, first compound 0.316 µM): 70.2%
- viability, T/C (second compound 0.003 µM, first compound 1 µM): 45.8%
- viability, T/C (second compound 0.003 µM, first compound 3.16 µM): 28.4%
- viability, T/C (second compound 0.003 µM, first compound 10 µM): 15.1%
- viability, T/C (second compound 0.00949 µM, first compound 0.0316 µM): 110%
- viability, T/C (second compound 0.00949 µM, first compound 0.1 µM): 97.6%
- viability, T/C (second compound 0.00949 µM, first compound 0.316 µM): 78.9%
- viability, T/C (second compound 0.00949 µM, first compound 1 µM): 53%
- viability, T/C (second compound 0.00949 µM, first compound 3.16 µM): 29.3%
- viability, T/C (second compound 0.00949 µM, first compound 10 µM): 14.8%
- viability, T/C (second compound 0.03 µM, first compound 0.0316 µM): 113%
- viability, T/C (second compound 0.03 µM, first compound 0.1 µM): 90.1%
- viability, T/C (second compound 0.03 µM, first compound 0.316 µM): 61.3%
- viability, T/C (second compound 0.03 µM, first compound 1 µM): 45.9%
- viability, T/C (second compound 0.03 µM, first compound 3.16 µM): 34.6%
- viability, T/C (second compound 0.03 µM, first compound 10 µM): 11.4%
- viability, T/C (second compound 0.0949 µM, first compound 0.0316 µM): 108%
- viability, T/C (second compound 0.0949 µM, first compound 0.1 µM): 118%
- viability, T/C (second compound 0.0949 µM, first compound 0.316 µM): 90.3%
- viability, T/C (second compound 0.0949 µM, first compound 1 µM): 54.5%
- viability, T/C (second compound 0.0949 µM, first compound 3.16 µM): 25.4%
- viability, T/C (second compound 0.0949 µM, first compound 10 µM): 10.8%
- viability, T/C (second compound 0.3 µM, first compound 0.0316 µM): 113%
- viability, T/C (second compound 0.3 µM, first compound 0.1 µM): 104%
- viability, T/C (second compound 0.3 µM, first compound 0.316 µM): 76.4%
- viability, T/C (second compound 0.3 µM, first compound 1 µM): 38.6%
- viability, T/C (second compound 0.3 µM, first compound 3.16 µM): 36%
- viability, T/C (second compound 0.3 µM, first compound 10 µM): 11.6%
